Laboratory results reported in a polymer gas permeability compilation.

**Q.** What does the source list for `*c1ccc(S(=O)(=O)c2ccc(N3C(=O)c4ccc(-c5ccc6c(c5)C(=O)N(*)C6=O)cc4C3=O)cc2)cc1` (repeat unit)?
**A.** CH4 permeability: 0.0625 Barrer; CO2 permeability: 2.16 Barrer; H2 permeability: 11.3 Barrer; N2 permeability: 0.0499 Barrer; O2 permeability: 0.348 Barrer

**Q.** With `*C(=C(*)c1ccc([Si](C)(C)CCCCCCCC)cc1)c1ccc(C(C)C)cc1` (repeat unit) as the compound, how does the CO2 permeability read?
**A.** The CO2 permeability was 120 Barrer.

**Q.** And the N2 permeability?
**A.** Its N2 permeability is 9.1 Barrer.

**Q.** And the O2 permeability?
**A.** The O2 permeability was 29 Barrer.

**Q.** For `*c1ccc2c(c1)-c1nc3ccc(-c4ccc5c(c4)nc4n5C(=O)c5cc(C(c6ccc(-c7nc8cc(C(c9ccc%10oc(-c%11ccc(C(*)(C(F)(F)F)C(F)(F)F)cc%11)nc%10c9)(C(F)(F)F)C(F)(F)F)ccc8o7)cc6)(C(F)(F)F)C(F)(F)F)ccc5-4)cc3n1C2=O` (repeat unit), which CH4 permeability is on record?
**A.** Its CH4 permeability is 46 Barrer.

**Q.** What about the CO2 permeability of the same compound?
**A.** Its CO2 permeability is 1800 Barrer.

**Q.** What about the H2 permeability of the same compound?
**A.** The H2 permeability was 1990 Barrer.

**Q.** And the N2 permeability?
**A.** The N2 permeability was 85 Barrer.

**Q.** And the O2 permeability?
**A.** Its O2 permeability is 421 Barrer.

**Q.** With `*c1cc(C(c2ccc(O)c(N3C(=O)c4ccc(C(c5ccc6c(c5)C(=O)N(*)C6=O)(C(F)(F)F)C(F)(F)F)cc4C3=O)c2)(C(F)(F)F)C(F)(F)F)ccc1O` (repeat unit) as the compound, how does the CH4 permeability read?
**A.** The CH4 permeability was 0.08 Barrer.

**Q.** And the CO2 permeability?
**A.** Its CO2 permeability is 9.9 Barrer.

**Q.** What about the H2 permeability of the same compound?
**A.** Its H2 permeability is 35 Barrer.

**Q.** What about the N2 permeability of the same compound?
**A.** Its N2 permeability is 0.4 Barrer.

**Q.** And the O2 permeability?
**A.** The O2 permeability was 2.6 Barrer.

**Q.** Which CH4 permeability does the source give for `*c1cccc(N2C(=O)c3ccc(C(c4ccc5c(c4)C(=O)N(*)C5=O)(C(F)(F)F)C(F)(F)F)cc3C2=O)c1C` (repeat unit) here?
**A.** Its CH4 permeability is 0.88 Barrer.

**Q.** And the CO2 permeability?
**A.** The CO2 permeability was 36.2 Barrer.

**Q.** What about the H2 permeability of the same compound?
**A.** Its H2 permeability is 102 Barrer.

**Q.** What about the N2 permeability of the same compound?
**A.** The N2 permeability was 1.89 Barrer.

**Q.** What about the O2 permeability of the same compound?
**A.** Its O2 permeability is 10.8 Barrer.

**Q.** Which results are given for `*c1ccc(Oc2ccc(S(=O)(=O)c3ccc(Oc4ccc(S(*)(=O)=O)cc4)cc3)cc2)cc1` (repeat unit)?
**A.** CH4 permeability: 0.13 Barrer; CO2 permeability: 2.88 Barrer; H2 permeability: 8.35 Barrer; N2 permeability: 0.13 Barrer; O2 permeability: 0.83 Barrer

**Q.** Which CH4 permeability does the source give for `*CN1CN(*)c2cc3c(cc21)C1(C)CCC3(C)c2cc(*)c(*)cc21` (repeat unit) here?
**A.** The CH4 permeability was 222 Barrer.

**Q.** And the H2 permeability?
**A.** The H2 permeability was 4440 Barrer.

**Q.** What about the N2 permeability of the same compound?
**A.** Its N2 permeability is 187 Barrer.

**Q.** What about the O2 permeability of the same compound?
**A.** Its O2 permeability is 933 Barrer.

**Q.** With `*CC=C(C*)[Si](C)(OC(C)C)OC(C)C` (repeat unit) as the compound, how does the CH4 permeability read?
**A.** Its CH4 permeability is 63.2 Barrer.

**Q.** What about the CO2 permeability of the same compound?
**A.** Its CO2 permeability is 345 Barrer.

**Q.** What about the N2 permeability of the same compound?
**A.** Its N2 permeability is 25.4 Barrer.

**Q.** What about the O2 permeability of the same compound?
**A.** Its O2 permeability is 69.2 Barrer.

**Q.** With `*Oc1ccc(C(C)(C)c2ccc(OC(=O)c3cccc(C(*)=O)c3)cc2)cc1` (repeat unit) as the compound, how does the CH4 permeability read?
**A.** The CH4 permeability was 0.269 Barrer.

**Q.** What about the CO2 permeability of the same compound?
**A.** Its CO2 permeability is 5.6 Barrer.

**Q.** What about the N2 permeability of the same compound?
**A.** Its N2 permeability is 0.272 Barrer.

**Q.** What about the O2 permeability of the same compound?
**A.** The O2 permeability was 1.45 Barrer.

**Q.** For `*Oc1c(C)cc(*)c(C(=O)c2ccc(Cl)cc2)c1C` (repeat unit), which CH4 permeability is on record?
**A.** Its CH4 permeability is 0.98 Barrer.

**Q.** And the CO2 permeability?
**A.** The CO2 permeability was 16.8 Barrer.

**Q.** And the N2 permeability?
**A.** The N2 permeability was 1.8 Barrer.

**Q.** And the O2 permeability?
**A.** Its O2 permeability is 8.6 Barrer.

**Q.** What does the source list for `*CCC(F)(Cl)C(*)(F)F` (repeat unit)?
**A.** CO2 permeability: 0.607 Barrer; N2 permeability: 0.061 Barrer; O2 permeability: 0.152 Barrer

**Q.** With `*CC(*)c1ccc(F)cc1` (repeat unit) as the compound, how does the CH4 permeability read?
**A.** Its CH4 permeability is 1.06 Barrer.

**Q.** And the CO2 permeability?
**A.** Its CO2 permeability is 17.2 Barrer.

**Q.** What about the N2 permeability of the same compound?
**A.** Its N2 permeability is 0.83 Barrer.

**Q.** And the O2 permeability?
**A.** The O2 permeability was 4.4 Barrer.

**Q.** For `*C(=C(*)c1ccc2c(c1)C(C)(C)c1ccccc1-2)c1ccc(F)cc1` (repeat unit), which CH4 permeability is on record?
**A.** The CH4 permeability was 11000 Barrer.

**Q.** What about the CO2 permeability of the same compound?
**A.** The CO2 permeability was 21000 Barrer.

**Q.** And the H2 permeability?
**A.** The H2 permeability was 11000 Barrer.

**Q.** What about the N2 permeability of the same compound?
**A.** The N2 permeability was 4700 Barrer.

**Q.** What about the O2 permeability of the same compound?
**A.** Its O2 permeability is 6200 Barrer.

**Q.** Which CH4 permeability does the source give for `*CC(*)c1ccc(C(C)(C)C)cc1` (repeat unit) here?
**A.** The CH4 permeability was 16.7 Barrer.

**Q.** What about the CO2 permeability of the same compound?
**A.** Its CO2 permeability is 140 Barrer.

**Q.** What about the N2 permeability of the same compound?
**A.** The N2 permeability was 8.4 Barrer.

**Q.** And the O2 permeability?
**A.** The O2 permeability was 35.5 Barrer.

**Q.** For `*c1ccc(Oc2ccc(C(C)(C)c3ccc(Oc4ccc(N5C(=O)c6ccc(Oc7ccc8c(c7)C(=O)N(*)C8=O)cc6C5=O)cc4)cc3)cc2)cc1` (repeat unit), which CO2 permeability is on record?
**A.** Its CO2 permeability is 2.7 Barrer.

**Q.** What about the H2 permeability of the same compound?
**A.** The H2 permeability was 8 Barrer.

**Q.** And the N2 permeability?
**A.** The N2 permeability was 0.07 Barrer.

**Q.** And the O2 permeability?
**A.** The O2 permeability was 0.49 Barrer.

**Q.** Which CH4 permeability does the source give for `*Oc1ccc(Cc2ccc(Oc3c(F)c(F)c(COC(C4CCCC(C(OCc5c(F)c(F)c(*)c(F)c5F)(C(F)(F)F)C(F)(F)F)C4)(C(F)(F)F)C(F)(F)F)c(F)c3F)cc2)cc1` (repeat unit) here?
**A.** Its CH4 permeability is 0.33 Barrer.

**Q.** And the CO2 permeability?
**A.** Its CO2 permeability is 7.6 Barrer.

**Q.** And the H2 permeability?
**A.** Its H2 permeability is 18 Barrer.

**Q.** And the N2 permeability?
**A.** The N2 permeability was 0.55 Barrer.

**Q.** What about the O2 permeability of the same compound?
**A.** Its O2 permeability is 2.3 Barrer.

**Q.** With `*c1ccc(-c2ccc(C(*)(c3ccccc3)C(F)(F)F)cc2)cc1` (repeat unit) as the compound, how does the CH4 permeability read?
**A.** Its CH4 permeability is 10 Barrer.

**Q.** And the CO2 permeability?
**A.** The CO2 permeability was 166 Barrer.

**Q.** And the H2 permeability?
**A.** Its H2 permeability is 114 Barrer.

**Q.** What about the N2 permeability of the same compound?
**A.** Its N2 permeability is 6.6 Barrer.

**Q.** What about the O2 permeability of the same compound?
**A.** The O2 permeability was 25 Barrer.

**Q.** What does the source list for `*c1cccc(N2C(=O)c3ccc(C(c4ccc5c(c4)C(=O)N(*)C5=O)(C(F)(F)F)C(F)(F)F)cc3C2=O)c1` (repeat unit)?
**A.** CH4 permeability: 0.163 Barrer; CO2 permeability: 9.7 Barrer; H2 permeability: 35.5 Barrer; N2 permeability: 0.419 Barrer; O2 permeability: 2.79 Barrer

**Q.** Which results are given for `*c1ccc(Oc2ccc(C(c3ccc(Oc4ccc(N5C(=O)c6ccc(C(c7ccc8c(c7)C(=O)N(*)C8=O)(C(F)(F)F)C(F)(F)F)cc6C5=O)cc4)cc3)(C(F)(F)F)C(F)(F)F)cc2)cc1` (repeat unit)?
**A.** CH4 permeability: 0.515 Barrer; CO2 permeability: 19 Barrer; H2 permeability: 46.7 Barrer; N2 permeability: 0.982 Barrer; O2 permeability: 5.27 Barrer
